From patent publication US20260070922A1, “PYRAZOLE AND IMIDAZOLE DERIVATIVES AS DUAL OREXIN AND KAPPA-OPIOID RECEPTORS MODULATORS COMPOSITION, METHODS FOR TREATING NEUROLOGICAL AND PSYCHIATRIC DISORDERS” (HAGER BIOSCIENCES, LLC, priority 2022, published 2026)

Tests used:
[1] = target: T1, Orexin type 1 (OX1R) receptor (Homo sapiens, UniProt O43613); assay: In vitro orexin antagonism assay: intracellular calcium measurement (FLIPR), orexin-A 3 nM as agonist; format: cell-based; conditions: for IC50: first value of IC50/Kb cell; for inhibition at 1 µM: read-out: OX1R, % Inh. @ 1 uM; for Kb: second value of IC50/Kb cell
T1 construct: expressed in transfected cells; host or cells: CHO cells (G418 selection)
T1 sequence (O43613 1-425): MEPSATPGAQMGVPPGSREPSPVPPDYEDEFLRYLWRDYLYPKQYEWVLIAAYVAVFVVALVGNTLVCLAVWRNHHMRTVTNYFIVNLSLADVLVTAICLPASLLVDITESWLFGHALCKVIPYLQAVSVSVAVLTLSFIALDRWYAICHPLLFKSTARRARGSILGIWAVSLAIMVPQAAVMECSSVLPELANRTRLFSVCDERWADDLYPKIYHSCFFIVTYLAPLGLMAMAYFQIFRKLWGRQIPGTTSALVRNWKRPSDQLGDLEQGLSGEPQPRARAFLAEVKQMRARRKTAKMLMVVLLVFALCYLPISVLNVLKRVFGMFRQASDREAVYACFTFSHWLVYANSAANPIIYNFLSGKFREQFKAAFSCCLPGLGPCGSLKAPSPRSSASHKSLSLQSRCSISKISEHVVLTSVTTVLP
Method in brief: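 CHO cells expressing the human orexin receptor were loaded with 3 μM fluo-4 AM plus 5 mM probenecid, then exposed to antagonist for 120 min before 3 nM orexin-A (final) was added on a FLIPR.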

[2] = target: T2, human k-opioid receptor (kOR) (Homo sapiens, UniProt P41145); assay: Human k-opioid (KOP) receptor (agonist radioligand [3H]U-69593) binding assay, transfected RBL cell membranes; conditions: second value of IC50/Ki cell
T2 construct: expressed in transfected cells; host or cells: RBL cells (membrane homogenates)

[3] = target: T2, human k-opioid receptor (kOR); assay: as above; conditions: for IC50: first value of IC50/Ki cell; for inhibition at 1 µM: read-out: KOR % Inh. @ 1 uM
Method in brief: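 Membranes from transfected RBL cells (~80 μg protein) incubated 60 min at 22° C with 0.5 nM [3H]U-69593 in 50 mM Tris-HCl pH 7.4, 10 mM MgCl2, 1 mM EDTA. Nonspecific binding defined with 10 μM naloxone; filtration and scintillation counting. Values are percent inhibition of specific radioligand binding.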

[4] = target: T3, human orexin-2 receptor (OX2R) (Homo sapiens, UniProt O43614); assay: In vitro orexin antagonism assay: intracellular calcium measurement (FLIPR), orexin-A 3 nM as agonist; format: cell-based; conditions: for IC50: first value of IC50/Kb cell; for inhibition at 1 µM: read-out: OX2R, % Inh. @ 1 uM; for Kb: second value of IC50/Kb cell
T3 construct: expressed in transfected cells; host or cells: CHO cells (G418 selection)
T3 sequence (O43614 1-444): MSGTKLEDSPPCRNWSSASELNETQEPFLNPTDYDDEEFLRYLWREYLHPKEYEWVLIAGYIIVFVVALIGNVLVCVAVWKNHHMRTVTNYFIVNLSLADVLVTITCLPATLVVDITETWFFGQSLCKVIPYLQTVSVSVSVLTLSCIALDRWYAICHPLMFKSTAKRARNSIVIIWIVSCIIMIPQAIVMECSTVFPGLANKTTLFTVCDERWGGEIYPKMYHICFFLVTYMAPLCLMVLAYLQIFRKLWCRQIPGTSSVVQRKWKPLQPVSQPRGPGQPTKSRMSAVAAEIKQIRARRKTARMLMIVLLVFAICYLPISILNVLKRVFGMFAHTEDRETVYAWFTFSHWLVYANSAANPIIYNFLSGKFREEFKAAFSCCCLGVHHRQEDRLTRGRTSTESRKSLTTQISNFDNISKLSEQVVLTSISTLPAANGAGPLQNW
Method in brief: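 Fluorescence peak on 3 nM orexin-A challenge, read by FLIPR and compared with vehicle, yields IC50 (geometric mean when repeated; may be normalized to an on-plate reference). Antagonists were added 120 min beforehand to fluo-4-loaded recombinant CHO cells expressing human OX1R or OX2R.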

T2 sequence (P41145 whole entry): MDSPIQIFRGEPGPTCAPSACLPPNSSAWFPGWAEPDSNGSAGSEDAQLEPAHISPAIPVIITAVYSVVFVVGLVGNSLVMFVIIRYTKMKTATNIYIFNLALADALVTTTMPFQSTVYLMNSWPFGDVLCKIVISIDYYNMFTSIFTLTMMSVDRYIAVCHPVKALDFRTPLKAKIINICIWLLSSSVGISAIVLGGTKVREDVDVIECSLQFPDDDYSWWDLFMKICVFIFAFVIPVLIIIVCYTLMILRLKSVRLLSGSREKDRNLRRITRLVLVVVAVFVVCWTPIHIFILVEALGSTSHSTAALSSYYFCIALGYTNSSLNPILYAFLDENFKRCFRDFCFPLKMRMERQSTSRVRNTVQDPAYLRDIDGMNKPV

| Structure (SMILES) | IC50 [1] [nM] | inhibition at 1 µM [1] [%] | Kb [1] [nM] | Ki [2] [nM] | IC50 [3] [nM] | inhibition at 1 µM [3] [%] | IC50 [4] [nM] | inhibition at 1 µM [4] [%] | Kb [4] [nM] |
| --- | --- | --- | --- | --- | --- | --- | --- | --- | --- |
| O=C(c1c(-c2ccccc2)nc2cc(C(F)(F)F)ccn12)N1CCC[C@H]1Cn1cc(-c2ccccc2)cn1 [Example 80] | 190 | 87 | 40 | 25 | 46 | 95 | 79 | 78 | 14 |
| O=C(c1c(-c2ccccc2)nc2ccc(F)cn12)N1CCC[C@H]1Cn1ccc(-c2ccc(F)cn2)n1 [Example 92] | 250 | 75 | 52 | 94 | 170 | 79 | 930 | 61 | 160 |
| O=C(c1c(-c2ccccc2)nc2cc(C(F)(F)F)ccn12)N1CCC[C@H]1Cn1ccc(-c2ccc(F)cn2)n1 [Example 94] | 37 | 88 | 8 | 120 | 210 | 74 | 36 | 76 | 6 |
| O=C(c1c(-c2ccccc2F)nn2ccccc12)N1[C@H](Cn2ccc(-c3ccc(F)cc3)n2)C[C@@H]2C[C@@H]21 [Example 95] | 95 | 91 | 20 | 99 | 180 | 87 |  | 50 |  |
| O=C(c1c(-c2ccccc2)nc2ccc(F)cn12)N1[C@H](Cn2ccc(-c3ccc(F)cc3)n2)C[C@@H]2C[C@@H]21 [Example 97] | 160 | 70 | 33 | 44 | 80 | 91 |  | 37 |  |
| O=C(c1c(-c2ccccc2F)nn2ccccc12)N1[C@H](Cn2ccc(-c3ccc(F)cn3)n2)C[C@@H]2C[C@@H]21 [Example 107] | 83 | 92 | 18 | 500 | 910 | 61 | 520 | 55 | 90 |
| O=C(c1nn2ccccc2c1-c1ccccc1)N1CCC[C@H]1Cn1cc(-c2ccc(F)cn2)cn1 [Example 112] | 4 | 100 | 0.8 | 390 | 720 | 70 | 15 | 86 | 3 |
| [2H]C1([2H])CC[C@@]([2H])(Cn2ccc(-c3ccc(F)cc3)n2)N1C(=O)c1c(-c2ccccc2)nc2ccc(F)cn12 [Example 177] | 20 | 95 | 4 | 49 | 90 | 91 | 371 | 85 | 64 |
